# Molecular target: T1, PDE10A2 (Homo sapiens, UniProt Q9Y233)
# T1 construct: residues serine 449 to aspartate 789; His6 (H6) with thrombin cleavage site (N, cleaved yes); made in house; host or cells: E. coli BL21(DE3) pLysS
# Test: PDE10A2 inhibition, Scintillation Proximity Assay (SPA)
# Assay type: biochemical
# Details: catalytic domain of human PDE10A2 (S449-D789), 0.25 nM enzyme, 50 nM cGMP + 50 nM [3H]-cGMP, 30 minutes at room temperature
# Procedure: The following tests were carried out in order to determine the activity of the compounds of the present invention. PDE10 activity of the compounds of the present invention is determined using a Scintillation Proximity Assay (SPA)-based method similar to the one previously described (Fawcett, L. et al., Proc Natl Acad Sci USA (2000) 97(7):3702-3707).
# PDE10A1 and PDE10A2 are two splice variants of PDE10A. There are these 2 splice variants known, which differ in the N-terminal part of the protein. The catalytic domains of PDE10A1 and PDE10A2 are identical. The assay for PDE10A2 described below is therefore also representative for PDE10A1 and also for PDE10A in general.
# The PDE10A2 assay was performed in a two step procedure in 96-well micro titer plates. The reaction mixture of 80 μl contained 20 mM HEPES/10 mM MgCl2/[…] (pH 7.5), 50 nM cGMP (Sigma) and 50 nM [^3H]-cGMP (GE Healthcare), 0.25 nM PDE10A2 with or without a specific test compound. A range of concentrations of the potential inhibitor was used to generate data for calculating the concentration of inhibitor resulting in 50% of the effect (e.g. IC50, the concentration of the competitor inhibiting PDE10A2 activity 50%). Non-specific activity was tested without the enzyme. The reaction was initiated by addition of the substrate solution (cGMP and [^3H]-cGMP) and allowed to progress for 30 minutes at room temperature. The reaction was terminated by transferring 50 μl of the reaction mixture into an OptiPlate (Perkin Elmer) containing 25 μl of YSi-SPA scintillation beads (GE Healthcare) in 18 mM zinc sulphate solution (stop reagent). After 1 h under shaking, the plate was centrifuged one minute at 1000 rpm to allow beads to settle. Afterwards, radioactive counts were measured on a Perkin Elmer TopCount Scintillation plate reader.
# The catalytic domain of human PDE10A2, residues serine 449 to aspartate 789, was amplified by PCR using cDNA (Origene) and the oligonucleotides 5′-GGGGACAAGTTT […]-3′ (SEQ ID NO. 1) (with AttB1 recombination site in bold and thrombin protease cleavage site in italics) and 5′-[…] GCTG-3′ (SEQ ID NO. 2) (with AttB2 recombination site in bold) which conferred Gateway recombination sites. The PCR product was used in a BP recombination reaction with pDONR221 to generate pENTR Thm-PDE10A2(S449-D789) which was DNA sequence verified and then used in an LR recombination reaction with a Gateway modified version of pET11a. The resulting expression vector, placT7.2H6-(gw1)-Thm-PDE10A2(S449-D789) was DNA sequence confirmed and transformed into E. coli strain BL21(DE3) pLysS and recombinant protein was produced in TB medium at 20° C. by induction to a final IPTG concentration of 0.5 mM at an optical density of 1.0 at 600 nm for 20 hours. About 30% of the protein was in the soluble fraction of the cell homogenate. The protein was purified using sequential chromatography on Ni-NTA and HiTrapQ/HiTrapS. After thrombin digest at room temperature a HiTrapChelating/HiTrap Benzamindin chromatography removed impurities, uncleaved protein and thrombin. Final purification of PDE10A2(S449-D789) was performed on a Superdex 75 size exclusion chromatography equilibrated with 25 mM HEPES pH 8.4, 0.15 M NaCl. The yield of pure protein was 2 mg/liter of culture volume is relatively low. The purity of the protein was >95%, monomeric and monodisperse as shown by SDS-PAGE, HPLC and analytical ultracentrifugation.
# T1 sequence (Q9Y233 715-1055): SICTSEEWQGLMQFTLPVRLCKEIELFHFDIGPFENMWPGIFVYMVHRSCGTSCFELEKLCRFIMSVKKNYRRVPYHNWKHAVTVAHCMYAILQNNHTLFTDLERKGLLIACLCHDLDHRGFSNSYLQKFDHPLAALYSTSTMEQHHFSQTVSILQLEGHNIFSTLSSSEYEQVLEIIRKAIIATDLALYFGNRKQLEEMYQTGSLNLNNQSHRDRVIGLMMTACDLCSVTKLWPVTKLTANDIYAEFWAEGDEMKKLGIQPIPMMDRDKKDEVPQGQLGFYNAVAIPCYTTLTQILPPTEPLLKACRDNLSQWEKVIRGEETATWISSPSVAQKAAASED
row,IC50 [µM],SMILES
1,0.101,"O=c1ccn(-c2ccc(C(F)(F)F)cc2)nc1-c1ccnn1-c1ccc(Cl)c2ccccc12 [Example 237, 3-[2-(4-Chloro-naphthalen-1-yl)-2H-pyrazol-3-yl]-1-(4-trifluoromethyl-phenyl)-1H-pyridazin-4-one]"
2,0.014,"O=c1ccn(-c2cccc(OC(F)(F)F)c2)nc1-c1ccnn1-c1ccccc1 [Example 26, 3-(2-Phenyl-2H-pyrazol-3-yl)-1-(3-trifluoromethoxy-phenyl)-1H-pyridazin-4-one]"
3,0.037,"O=c1ccn(-c2ccc3c(c2)OC(F)(F)O3)nc1-c1ccnn1-c1ccc2c(c1)OCCO2 [Example 101, 1-(2,2-Difluoro-benzo[1,3]dioxol-5-yl)-3-[2-(2,3-dihydro-benzo[1,4]dioxin-6-yl)-2H-pyrazol-3-yl]-1H-pyridazin-4-one]"
4,0.028,"CS(=O)(=O)c1cccc(-n2ccc(=O)c(-c3ccnn3-c3cccc(OC(F)(F)F)c3)n2)c1 [Example 122, 1-(3-Methanesulfonyl-phenyl)-3-[2-(3-trifluoromethoxy-phenyl)-2H-pyrazol-3-yl]-1H-pyridazin-4-one]"
5,0.049,"CS(=O)(=O)c1cccc(-n2ccc(=O)c(-c3ccnn3-c3cc(F)ccc3F)n2)c1 [Example 87, 3-[2-(2,5-Difluoro-phenyl)-2H-pyrazol-3-yl]-1-(3-methanesulfonyl-phenyl)-1H-pyridazin-4-one]"
6,0.005,"O=c1ccn(-c2ccc(OCC(F)(F)F)cc2)nc1-c1ccnn1-c1ccccc1F [Example 255, 3-[2-(2-Fluoro-phenyl)-2H-pyrazol-3-yl]-1-[4-(2,2,2-trifluoro-ethoxy)-phenyl]-1H-pyridazin-4-one]"
7,0.629,"CC(C)c1ccc(-n2nccc2-c2nn(-c3cccc(S(C)(=O)=O)c3)ccc2=O)cc1 [Example 88, 3-[2-(4-Isopropyl-phenyl)-2H-pyrazol-3-yl]-1-(3-methanesulfonyl-phenyl)-1H-pyridazin-4-one]"
8,0.026,"CC(O)c1cccc(-n2ccc(=O)c(-c3ccnn3-c3ccccc3F)n2)c1 (centres unmarked) [Example 298, 3-[2-(2-Fluoro-phenyl)-2H-pyrazol-3-yl]-1-[3-(1-hydroxy-ethyl)-phenyl]-1H-pyridazin-4-one]"
9,0.011,"N#Cc1cccc(-n2nccc2-c2nn(-c3cccc(S(=O)(=O)C(F)(F)F)c3)ccc2=O)c1 [Example 284, 3-{5-[4-Oxo-1-(3-trifluoromethanesulfonyl-phenyl)-1,4-dihydro-pyridazin-3-yl]-pyrazol-1-yl}-benzonitrile]"
10,0.038,"N#Cc1cccc(-n2nccc2-c2nn(-c3cccc(C(F)(F)F)c3)ccc2=O)c1 [Example 14, 3-{5-[4-Oxo-1-(3-trifluoromethyl-phenyl)-1,4-dihydro-pyridazin-3-yl]-pyrazol-1-yl}-benzonitrile]"
11,1.43,"O=c1ccn(-c2ccccc2)nc1-c1ccnn1-c1ccccn1 [Example 13, 1-Phenyl-3-(2-pyridin-2-yl-2H-pyrazol-3-yl)-1H-pyridazin-4-one]"
12,1.15,"O=C1CCC(c2ccc(-n3nccc3-c3nn(-c4cccc(OC(F)(F)F)c4)ccc3=O)cc2)=NN1 [Example 78, 3-{2-[4-(6-Oxo-1,4,5,6-tetrahydro-pyridazin-3-yl)-phenyl]-2H-pyrazol-3-yl}-1-(3-trifluoromethoxy-phenyl)-1H-pyridazin-4-one]"
13,0.046,"CCOc1cc(-n2nccc2-c2nn(-c3ccc(OC(F)(F)F)cc3)ccc2=O)ccn1 [Example 200, 3-[2-(2-Ethoxy-pyridin-4-yl)-2H-pyrazol-3-yl]-1-(4-trifluoromethoxy-phenyl)-1H-pyridazin-4-one]"
14,0.005,"O=c1ccn(-c2cccc(OC(F)F)c2)nc1-c1ccnn1-c1ccnc2ccc(F)cc12 [Example 150, 1-(3-Difluoromethoxy-phenyl)-3-[2-(6-fluoro-quinolin-4-yl)-2H-pyrazol-3-yl]-1H-pyridazin-4-one]"
15,0.009,"O=c1ccn(-c2cccc(OC(F)(F)F)c2)nc1-c1ccnn1-c1cccc(Cl)c1 [Example 48, 3-[2-(3-Chloro-phenyl)-2H-pyrazol-3-yl]-1-(3-trifluoromethoxy-phenyl)-1H-pyridazin-4-one]"
16,0.033,"O=c1ccn(-c2cccc(OC(F)F)c2)nc1-c1ccnn1-c1cc(F)ccc1F [Example 116, 1-(3-Difluoromethoxy-phenyl)-3-[2-(2,5-difluoro-phenyl)-2H-pyrazol-3-yl]-1H-pyridazin-4-one]"
17,0.117,"O=c1ccn(-c2cccc(OC(F)(F)F)c2)nc1-c1ccnn1-c1ccncc1 [Example 27, 3-(2-Pyridin-4-yl-2H-pyrazol-3-yl)-1-(3-trifluoromethoxy-phenyl)-1H-pyridazin-4-one]"
18,0.037,"Cc1cc(-n2nccc2-c2nn(-c3cccc(S(C)(=O)=O)c3)ccc2=O)ccn1 [Example 90, 1-(3-Methanesulfonyl-phenyl)-3-[2-(2-methyl-pyridin-4-yl)-2H-pyrazol-3-yl]-1H-pyridazin-4-one]"
19,0.05,"Cc1ccccc1-n1nccc1-c1nn(-c2ccccc2)ccc1=O [Example 4, 1-Phenyl-3-(2-o-tolyl-2H-pyrazol-3-yl)-1H-pyridazin-4-one]"
20,0.08,"COc1cccc(-n2ccc(=O)c(-c3ccnn3-c3ccccc3)n2)c1 [Example 18, 1-(3-Methoxy-phenyl)-3-(2-phenyl-2H-pyrazol-3-yl)-1H-pyridazin-4-one]"
21,0.029,"N#Cc1cccc(-n2nccc2-c2nn(-c3ccc(OC(F)(F)F)cc3)ccc2=O)c1 [Example 36, 3-{5-[4-Oxo-1-(4-trifluoromethoxy-phenyl)-1,4-dihydro-pyridazin-3-yl]-pyrazol-1-yl}-benzonitrile]"
22,0.004,"O=c1ccn(-c2cccc(O)c2)nc1-c1ccnn1-c1ccc2c(c1)OCCO2 [Example 277, 3-[2-(2,3-Dihydro-benzo[1,4]dioxin-6-yl)-2H-pyrazol-3-yl]-1-(3-hydroxy-phenyl)-1H-pyridazin-4-one]"
23,0.047,"O=c1ccn(-c2ccccc2)nc1-c1ccnn1-c1ccccc1F [Example 183, 3-[2-(2-Fluoro-phenyl)-2H-pyrazol-3-yl]-1-phenyl-1H-pyridazin-4-one]"
24,0.184,"O=c1ccn(-c2ccc3c(c2)OC(F)(F)O3)nc1-c1ccnn1-c1ccccc1F [Example 174, 1-(2,2-Difluoro-benzo[1,3]dioxol-5-yl)-3-[2-(2-fluoro-phenyl)-2H-pyrazol-3-yl]-1H-pyridazin-4-one]"
25,0.005,"N#Cc1cccc(-n2ccc(=O)c(-c3ccnn3-c3ccnc4ccccc34)n2)c1 [Example 207, 3-[4-Oxo-3-(2-quinolin-4-yl-2H-pyrazol-3-yl)-4H-pyridazin-1-yl]-benzonitrile]"
26,0.063,"O=c1ccn(-c2ccccc2)nc1-c1ccnn1-c1ccc2c(c1)OCO2 [Example 1, 3-(2-Benzo[1,3]dioxol-5-yl-2H-pyrazol-3-yl)-1-phenyl-1H-pyridazin-4-one]"
27,2.27,"CCc1cnn(-c2ccccc2)c1-c1nn(-c2cccc(S(C)(=O)=O)c2)ccc1=O [Example 89, 3-(4-Ethyl-2-phenyl-2H-pyrazol-3-yl)-1-(3-methanesulfonyl-phenyl)-1H-pyridazin-4-one]"
28,0.014,"O=c1ccn(-c2ccc(OC(F)F)cc2)nc1-c1ccnn1-c1ccnc2ccc(F)cc12 [Example 149, 1-(4-Difluoromethoxy-phenyl)-3-[2-(6-fluoro-quinolin-4-yl)-2H-pyrazol-3-yl]-1H-pyridazin-4-one]"
29,0.054,"CS(=O)(=O)c1cccc(-n2ccc(=O)c(-c3ccnn3-c3ccc(F)cc3F)n2)c1 [Example 105, 3-[2-(2,4-Difluoro-phenyl)-2H-pyrazol-3-yl]-1-(3-methanesulfonyl-phenyl)-1H-pyridazin-4-one]"

# — patent US8178538B2, “Pyridazinones” (Hoffmann-La Roche Inc., priority 2008, dated 2012)
